Laboratory results reported in publication PMC8152350, “High cytotoxicity of betulin towards fish and murine fibroblasts: Is betulin safe for nonneoplastic cells?” (BMC Veterinary Research, 2021).
Values after ≈ are worked out from the molar mass of the structure shown.

Columns and labels:
[1] = MTT assay (mitochondrial activity), murine fibroblasts; settings: mouse
Procedure: (§1) NIH/3T3 (ATCC CRL-1658) mouse embryonic fibroblasts were grown in Dulbecco’s modified Eagle’s medium (DMEM) supplemented with 2 mM glutamine, 10 % foetal bovine serum and a 1 % antibiotic-antimycotic solution at 37 °C in a humidified atmosphere with 5 % CO2.
(§2) NIH/3T3 and BF-2 cells were seeded in 96-well plates at a density of 1 × 10^4 or 2 × 10^4 cells per well, respectively. After 24 h of incubation at an appropriate temperature, cells were exposed to betulin at the concentrations mentioned above for 24, 48 and 72 h. Control (untreated) cells served as the negative control and a reference point. Triton X-100 treated cells served as the positive internal control in MTT, NRU and LDH assays. Due to the specific character of SRB assay, there was no positive control in this test. After 24, 48 and 72 h of treatment, the four different cytotoxicity assays were performed. All experiments were repeated three times.
(§3) The MTT assay is used to estimate mitochondrial damage, since it determines the activity of mitochondrial enzymes. These enzymes reduce the water-soluble tetrazolium dye MTT to insoluble purple formazan, which accumulates inside viable cells.
(§4) The MTT assay was conducted using the protocol described by Mosmann, with some modifications described in our previous article.
(§5) The MTT assay was used to determine the cytotoxicity of both betulin and the vehicle (DMSO).
(§6) All experiments were repeated three times. […] Statistical analyses were performed using GraphPad Prism software (GraphPad Software, USA). Data were subjected to one-way analysis of variance (ANOVA). Dunnett’s posttest was used to determine differences between control and betulin-exposed cells at the same time points. Differences between the two cell lines at the same time points were determined using Student’s t-test. The 50 % cytotoxic concentrations (CC50, defined as the concentration of the compound that reduced cell viability by 50 %) were calculated using the Quest Graph™ ED50 Calculator (AAT Bioquest, Inc.).

NIH/3T3 cells [2] = experiment: as above
Procedure: as §1, §2, §3, §4, §5, §6

[3] = MTT assay (mitochondrial activity), fish fibroblasts; type: cell-based, bluegill; settings: bluegill, BF-2 caudal trunk fibroblasts, mean ± SD, n = 3
Procedure: (§7) BF-2 (ATCC CCL-91) bluegill caudal trunk fibroblasts were grown in minimum essential medium (Eagle, EBSS) supplemented with 1 % nonessential amino acids (NEAAs), 10 % foetal bovine serum and 1 % antibiotic-antimycotic solution at 23 °C in a humidified atmosphere with 5 % CO2.
(§8) All experiments were repeated three times.

BF-2 cells [4] = experiment: as above; type: cell-based, bluegill; settings: fish cells
Procedure: as §7, §8

[5] = NRU assay (lysosomal membrane integrity), murine fibroblasts; type: cell-based, mouse; settings: mouse, NIH/3T3 embryonic fibroblasts, n = 3
Procedure: as §8
(§9) The NRU assay evaluates lysosomal membrane integrity. It measures neutral red dye accumulation within lysosomes of viable cells.
(§10) The NRU assay was performed using a commercially available kit (TOX4) (Sigma-Aldrich, Poland) according to the manufacturer’s protocol. The full description of the test procedure was also provided in a published article.

NIH/3T3 cells [6] = experiment: as above; type: cell-based, mouse; settings: NIH/3T3, beginning at 48 h
Procedure: as §8, §9, §10

[7] = NRU assay (lysosomal membrane integrity), fish fibroblasts; type: cell-based, bluegill; settings: bluegill, BF-2 caudal trunk fibroblasts, mean ± SD, n = 3
Procedure: as §7, §8, §9, §10

BF-2 cells [8] = experiment: as above; type: cell-based, bluegill; settings: BF-2, regardless of the time of incubation
Procedure: as §7, §8, §9, §10

[9] = SRB assay (total cellular protein content), fish fibroblasts; type: cell-based, bluegill; settings: bluegill, BF-2 caudal trunk fibroblasts, n = 3
Procedure: as §7, §8
(§11) The sulforhodamine B colorimetric assay measures the cellular protein content, and the assay results are proportional to the number of cells.
(§12) The SRB assay was performed using a commercially available kit (TOX6) (Sigma-Aldrich, Poland) according to the manufacturer’s protocol. In this assay, SRB binds to protein components of trichloroacetic acid-fixed cells, and the protein-bound dye is extracted with Tris. The results obtained are presented as the percentage of the total cellular protein content in control (nontreated) cells.

BF-2 cells [10] = experiment: as above; type: cell-based, bluegill; settings: BF-2
Procedure: as §7, §8, §11, §12

[11] = test system: B16 cells (B164A5 and B16F10); set-up: method as in PMID 25756279; settings: 150 µM betulin; cited from earlier work
HL60 = test system: HL60; set-up: method as in PMID 12697374; settings: HL60 leukaemia; read-out: IC50 of betulin; cited from earlier work
NB-1 = test system: NB-1; set-up: method as in PMID 12697374; settings: NB-1 neuroblastoma; read-out: IC50 of betulin; cited from earlier work
Bcap-37 (breast cancer) = test system: Bcap-37 (breast cancer); set-up: method as in PMID 22627971, PMID 23379693; settings: Bcap-37, 20 µM; cited from earlier work
MCF-7 (breast cancer) = test system: MCF-7 (breast cancer); set-up: method as in PMID 22627971, PMID 23379693; settings: MCF-7, 20 µM; cited from earlier work

SMILES: C=C(C)[C@@H]1CC[C@]2(CO)CC[C@]3(C)[C@H](CC[C@@H]4[C@@]5(C)CC[C@H](O)C(C)(C)[C@@H]5CC[C@]43C)[C@@H]12 [betulin, Betulin]
- CC50 at 24 h [1]: 1.532 ± 0.005 µg/mL (≈ 3.46 µM)
- CC50 at 48 h [1]: 1.58 ± 0.64 µg/mL (≈ 3.58 µM)
- CC50 at 72 h [1]: 1.85 ± 0.647 µg/mL (≈ 4.19 µM)
- decrease in cell viability in the MTT assay (NIH/3T3 cells [2]; NIH/3T3, betulin 7.8 µg/mL, 72 h): approximately 80%
- betulin concentration causing statistically significant decrease in viability (MTT) (NIH/3T3 cells [2]; mouse cells, 24 h, threshold persisted until termination of the experiment): ≥ 1.95 µg/mL
- CC50 at 24 h ([3]; BF-2, 24 h, read-out: CC50 betulin MTT 24 h): 3.39 ± 0.903 µg/mL (≈ 7.67 µM)
- CC50 at 48 h ([3]; BF-2, 48 h, read-out: CC50 betulin MTT 48 h): 2.75 ± 1.05 µg/mL (≈ 6.21 µM)
- CC50 at 72 h ([3]; BF-2, 72 h, read-out: CC50 betulin MTT 72 h): 3.02 ± 1.03 µg/mL (≈ 6.82 µM)
- betulin concentration causing statistically significant decrease in viability (MTT) (BF-2 cells [4]; 24 h): ≥ 1.95 µg/mL
- lower betulin concentration causing considerable decrease in viability (MTT) (BF-2 cells [4]; starting at 48 h of incubation): 0.976 µg/mL
- CC50 at 24 h ([5]; NIH/3T3, 24 h, read-out: CC50 betulin NRU 24 h): > 15.6 µg/mL
- CC50 at 48 h ([5]; NIH/3T3, 48 h, mean ± SD, read-out: CC50 betulin NRU 48 h): 7.33 ± 2.94 µg/mL (≈ 16.6 µM)
- CC50 at 72 h ([5]; NIH/3T3, 72 h, mean ± SD, read-out: CC50 betulin NRU 72 h): 13 ± 2.94 µg/mL (≈ 29.3 µM)
- betulin concentration causing considerable decrease in viability (NRU) (NIH/3T3 cells [6]): ≥ 3.9 µg/mL
- CC50 at 24 h ([7]; BF-2, 24 h, read-out: CC50 betulin NRU 24 h): 27.6 ± 9.01 µg/mL (≈ 62.4 µM)
- CC50 at 48 h ([7]; BF-2, 48 h, read-out: CC50 betulin NRU 48 h): 16.5 ± 3.6 µg/mL (≈ 37.2 µM)
- CC50 at 72 h ([7]; BF-2, 72 h, read-out: CC50 betulin NRU 72 h): 14.5 ± 3.41 µg/mL (≈ 32.8 µM)
- betulin concentration causing considerable decrease in viability (NRU) (BF-2 cells [8]): at least 15.625 µg/mL
- CC50 at 24 h ([9]; BF-2, 24 h, read-out: CC50 betulin SRB 24 h): > 31.2 µg/mL
- CC50 at 48 h ([9]; BF-2, 48 h, read-out: CC50 betulin SRB 48 h): > 31.2 µg/mL
- CC50 at 72 h ([9]; BF-2, 72 h, read-out: CC50 betulin SRB 72 h): > 31.2 µg/mL
- betulin concentration causing considerable decrease in the number of cells (SRB) (BF-2 cells [10]): at least 15.625 µg/mL
- trypan blue exclusion capacity [11]: 60%
- IC50 (HL60): 14.7 µM
- IC50 (NB-1): 16.5 µM
- inhibitory activity of betulin (Bcap-37 (breast cancer)): 53.2%
- inhibitory activity of betulin (MCF-7 (breast cancer)): 53.2%
